The record followed here is ChEMBL document CHEMBL1201862, “PubChem BioAssay data set” (2004).

Values joined by “and” are separate entries in the source; they are usually repeats but may differ in a detail not shown here. Identical values can stand only once. Active and inactive are the calls of the source.

Experiment [1] addresses Tyrosine-protein kinase JAK3 (Homo sapiens, UniProt P52333). The format is functional.
For experiment [2], the target named is BDNF/NT-3 growth factors receptor (Homo sapiens, UniProt Q16620). The format is functional.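 Also: NTRK2 measured as one member of a broad kinome-wide kinase profiling panel.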
Chain of BDNF/NT-3 growth factors receptor (Q16620 whole entry): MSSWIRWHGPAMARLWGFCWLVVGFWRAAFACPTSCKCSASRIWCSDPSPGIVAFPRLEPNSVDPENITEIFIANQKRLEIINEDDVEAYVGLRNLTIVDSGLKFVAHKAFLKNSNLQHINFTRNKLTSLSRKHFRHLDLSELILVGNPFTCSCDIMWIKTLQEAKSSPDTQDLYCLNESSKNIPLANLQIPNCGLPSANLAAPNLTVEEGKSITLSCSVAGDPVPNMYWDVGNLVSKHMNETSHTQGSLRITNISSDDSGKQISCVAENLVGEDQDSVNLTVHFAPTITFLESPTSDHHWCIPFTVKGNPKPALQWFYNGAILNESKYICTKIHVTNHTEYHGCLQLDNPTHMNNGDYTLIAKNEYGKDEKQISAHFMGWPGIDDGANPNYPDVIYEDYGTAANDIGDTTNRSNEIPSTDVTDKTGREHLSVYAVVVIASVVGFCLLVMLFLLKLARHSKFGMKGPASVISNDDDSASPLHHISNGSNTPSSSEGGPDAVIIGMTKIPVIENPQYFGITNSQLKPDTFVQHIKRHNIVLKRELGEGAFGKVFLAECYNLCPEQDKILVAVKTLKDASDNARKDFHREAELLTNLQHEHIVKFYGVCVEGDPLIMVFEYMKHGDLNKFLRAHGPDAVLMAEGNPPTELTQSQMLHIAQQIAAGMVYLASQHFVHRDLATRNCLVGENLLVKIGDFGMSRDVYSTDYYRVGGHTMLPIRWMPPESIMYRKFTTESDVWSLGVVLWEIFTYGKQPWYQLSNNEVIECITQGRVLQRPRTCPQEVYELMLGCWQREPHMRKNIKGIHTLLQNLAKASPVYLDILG
Experiment [3] deals with Calcium/calmodulin-dependent protein kinase type II subunit alpha (Homo sapiens, UniProt Q9UQM7). The experiment in a line: Navigating the Kinome. Panel member name: CAMK2A. The format is functional.
Chain of Calcium/calmodulin-dependent protein kinase type II subunit alpha (Q9UQM7 whole entry): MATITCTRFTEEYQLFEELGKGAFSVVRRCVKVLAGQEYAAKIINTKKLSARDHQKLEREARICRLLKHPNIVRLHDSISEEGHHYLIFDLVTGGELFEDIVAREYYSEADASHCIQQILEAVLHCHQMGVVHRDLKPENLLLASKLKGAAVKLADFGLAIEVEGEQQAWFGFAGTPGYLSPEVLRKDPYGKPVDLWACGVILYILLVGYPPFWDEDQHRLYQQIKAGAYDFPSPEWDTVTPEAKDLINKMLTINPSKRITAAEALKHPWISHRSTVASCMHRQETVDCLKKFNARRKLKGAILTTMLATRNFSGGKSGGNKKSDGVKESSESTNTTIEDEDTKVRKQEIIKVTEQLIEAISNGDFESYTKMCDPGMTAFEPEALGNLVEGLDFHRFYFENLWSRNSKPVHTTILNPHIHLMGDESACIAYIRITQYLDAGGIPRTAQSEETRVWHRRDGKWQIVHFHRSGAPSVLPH
Another experiment deals with Escherichia coli. Put plainly: microbe, parasite or virus in culture.
Experiment [4] concerns the target Dual specificity protein kinase CLK1 (Homo sapiens, UniProt P49759). The experiment in a line: inhibition of human CLK1 activity – biochemical, cherry-picked samples, selectivity assay for Dyrk1A inhibitor project, dose response (AID 588811).
Experiment [5] has as its system HEK293. Put plainly: cells. The class given is functional, cell-based. The settings on record: Homo sapiens.
The target in experiment [6] is T1, Nuclear receptor subfamily 0 group B member 1 (Homo sapiens, UniProt P51843).
T1 sequence (P51843 whole entry): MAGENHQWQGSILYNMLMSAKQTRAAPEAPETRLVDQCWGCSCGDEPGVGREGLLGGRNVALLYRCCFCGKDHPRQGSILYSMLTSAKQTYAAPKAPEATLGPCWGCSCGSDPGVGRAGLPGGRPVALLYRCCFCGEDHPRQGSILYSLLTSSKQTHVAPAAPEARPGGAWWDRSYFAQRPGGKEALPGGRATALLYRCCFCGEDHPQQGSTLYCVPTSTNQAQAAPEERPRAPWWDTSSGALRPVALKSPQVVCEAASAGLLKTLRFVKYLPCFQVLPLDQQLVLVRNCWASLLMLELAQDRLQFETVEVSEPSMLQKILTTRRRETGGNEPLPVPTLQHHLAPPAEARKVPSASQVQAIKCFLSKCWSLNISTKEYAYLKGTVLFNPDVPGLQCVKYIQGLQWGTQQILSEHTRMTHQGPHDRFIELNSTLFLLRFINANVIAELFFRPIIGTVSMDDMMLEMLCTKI
Put plainly: Luminescence-based cell-based high throughput dose response assay for inhibitors of the orphan nuclear receptor subfamily 0, group B, member 1 (DAX1; NR0B1). [Related pubchem assays (depositor defined):AID504766, AID504790]. The format is functional.

Experiment [7] has as its target Glycogen synthase kinase-3 alpha (Homo sapiens, UniProt P49840). The format is functional.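 Also: GSK3A result taken from a broad kinome-wide kinase panel.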
The target in experiment [8] is Calcium/calmodulin-dependent protein kinase type II subunit beta (Homo sapiens, UniProt Q13554). The class given is functional.
Experiment [9] addresses Glycogen synthase kinase-3 beta (Homo sapiens, UniProt P49841). The class given is functional.
The target of experiment [10] is Dual specificity tyrosine-phosphorylation-regulated kinase 1A (Homo sapiens, UniProt Q13627). The format is functional.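 Also: measured against DYRK1A as one member of a broad kinome profiling panel.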
Experiment [11] addresses Aryl hydrocarbon receptor (Homo sapiens, UniProt P35869). The settings on record: Potency.
For experiment [12], the target named is T2, High affinity choline transporter 1 (Homo sapiens, UniProt Q9GZV3).
T2 sequence (Q9GZV3 whole entry): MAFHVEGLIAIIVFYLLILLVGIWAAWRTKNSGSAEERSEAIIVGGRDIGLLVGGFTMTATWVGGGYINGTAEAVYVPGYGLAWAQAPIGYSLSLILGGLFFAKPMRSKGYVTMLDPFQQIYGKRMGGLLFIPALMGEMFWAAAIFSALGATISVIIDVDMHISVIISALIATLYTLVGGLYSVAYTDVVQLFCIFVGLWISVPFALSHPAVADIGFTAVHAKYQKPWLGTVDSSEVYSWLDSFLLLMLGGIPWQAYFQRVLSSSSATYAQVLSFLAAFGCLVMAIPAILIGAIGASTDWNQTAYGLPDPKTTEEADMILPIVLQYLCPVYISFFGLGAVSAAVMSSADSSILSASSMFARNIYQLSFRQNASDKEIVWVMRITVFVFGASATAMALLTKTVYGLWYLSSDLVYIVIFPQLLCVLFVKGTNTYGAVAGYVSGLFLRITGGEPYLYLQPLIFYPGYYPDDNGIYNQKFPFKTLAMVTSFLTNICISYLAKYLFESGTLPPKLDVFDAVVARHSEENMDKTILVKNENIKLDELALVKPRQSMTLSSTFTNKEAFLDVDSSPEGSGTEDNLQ
Put plainly: human choline transporter blockers, potency – cell-based, 5-point CRC, membrane potential dye, dose response (AID 504840). The class given is functional.

For experiment [13], the target named is T2, High affinity choline transporter 1. The experiment in a line: human choline transporter blockers, potency – cell-based, 10-point CRC, membrane potential dye, dose response (AID 588401).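 Also: membrane potential dye fluorescence of choline-evoked depolarization via CHT.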 The format is functional.
Experiment [14] has as its system HEK293. Put plainly: inhibition of NOD1-driven NF-kB reporter – cell-based, luminescence, uHTS, primary screen (AID 1578). The class given is functional. The settings on record: Homo sapiens.
In experiment [15] the test system is HEK293. Put plainly: cells. The class given is functional, cell-based. The settings on record: Homo sapiens. This is another data set of the same source.
Experiment [16] relates to HEK293. Put plainly: cells. The settings on record: Homo sapiens. The class given is functional, cell-based. The source holds these as a separate data set.
The target of experiment [17] is Nucleotide-binding oligomerization domain-containing protein 2 (Homo sapiens, UniProt Q9HC29). The experiment in a line: inhibition of NOD2-driven NF-kB reporter – cell-based, luminescence, uHTS, HEK293 (AID 1566). The format is functional.
Experiment [18] deals with HEK293. The experiment in a line: NOD2 signaling inhibitors in MDP-stimulated cells, cell-based, uHTS, luminescence (AID 2001). The class given is functional. The settings on record: Homo sapiens.
Experiment [19] has as its system HEK293. The experiment in a line: cells. The settings on record: Homo sapiens. The class given is functional, cell-based. This is another data set of the same source.
The target in the next experiment is Tumor necrosis factor (Homo sapiens, UniProt P01375). Put plainly: analog potency on TNFa NF-kB signaling – cell-based, revised, SAR follow-up (AID 2337). The format is functional.
Chain of Tumor necrosis factor (P01375 whole entry, the tested form may be a part): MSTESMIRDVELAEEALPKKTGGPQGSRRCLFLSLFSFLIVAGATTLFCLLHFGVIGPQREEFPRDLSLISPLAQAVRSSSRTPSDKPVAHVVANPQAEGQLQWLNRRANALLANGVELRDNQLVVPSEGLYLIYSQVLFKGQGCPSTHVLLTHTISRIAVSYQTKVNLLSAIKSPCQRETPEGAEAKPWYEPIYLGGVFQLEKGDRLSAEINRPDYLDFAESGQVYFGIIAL
Experiment [20] has as its target T3, Nucleotide-binding oligomerization domain-containing protein 1 (Homo sapiens, UniProt Q9Y239).
T3 sequence (Q9Y239 whole entry): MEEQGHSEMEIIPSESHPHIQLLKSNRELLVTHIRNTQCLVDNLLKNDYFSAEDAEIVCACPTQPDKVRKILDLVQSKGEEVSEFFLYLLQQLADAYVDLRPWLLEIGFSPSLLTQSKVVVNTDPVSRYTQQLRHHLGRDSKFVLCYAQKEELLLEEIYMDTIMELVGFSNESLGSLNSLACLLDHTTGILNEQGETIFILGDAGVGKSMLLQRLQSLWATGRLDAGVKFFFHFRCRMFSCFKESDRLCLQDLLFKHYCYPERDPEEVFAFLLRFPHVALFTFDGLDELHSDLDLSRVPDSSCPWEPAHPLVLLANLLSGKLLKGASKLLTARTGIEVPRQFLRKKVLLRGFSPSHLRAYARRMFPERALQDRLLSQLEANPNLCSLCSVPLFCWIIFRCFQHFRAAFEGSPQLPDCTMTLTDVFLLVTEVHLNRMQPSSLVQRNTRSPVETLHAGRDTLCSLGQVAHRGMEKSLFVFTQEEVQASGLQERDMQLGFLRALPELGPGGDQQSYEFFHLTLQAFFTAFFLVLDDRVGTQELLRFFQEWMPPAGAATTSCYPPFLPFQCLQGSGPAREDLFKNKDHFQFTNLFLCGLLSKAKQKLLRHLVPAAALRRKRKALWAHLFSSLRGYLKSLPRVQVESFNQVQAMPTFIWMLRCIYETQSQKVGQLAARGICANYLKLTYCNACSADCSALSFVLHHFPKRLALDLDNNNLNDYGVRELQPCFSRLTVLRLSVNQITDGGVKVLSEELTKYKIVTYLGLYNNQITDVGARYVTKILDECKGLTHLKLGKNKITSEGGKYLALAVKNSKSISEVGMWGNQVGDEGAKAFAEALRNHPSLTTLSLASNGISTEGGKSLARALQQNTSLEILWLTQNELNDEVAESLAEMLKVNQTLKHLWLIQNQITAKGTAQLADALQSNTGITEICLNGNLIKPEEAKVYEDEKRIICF
The experiment in a line: blockers of NOD1 pathway activity – revised, SAR follow-up (AID 2333). The format is functional.

Experiment [21] relates to HEK293. The experiment in a line: cells. The settings on record: Homo sapiens.
The target of experiment [22] is Ras and Rab interactor 1/Tyrosine-protein kinase ABL1 (Homo sapiens, UniProt P00519+Q13671). The format is functional.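 Also: biochemical TR-FRET dose-response test measuring inhibition of binding between Rin1 and Abl proteins.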
Experiment [23] deals with HEK293. The experiment in a line: cells. The settings on record: Homo sapiens. The source holds these as a separate data set.
Experiment [24] has as its system HEK293. Put plainly: cells. The settings on record: Homo sapiens. This is another data set of the same source.
Experiment [25] in a line: A cytotoxicity screen of small molecule inhibitors of the PhoP region in Salmonella typhi identified in the primary screen. [Related pubchem assays: 1850, 1864, 1985 ]. The format is functional.
Experiment [26] addresses Heat shock protein HSP 90-alpha (Homo sapiens, UniProt P07900). The format is functional, organism-based.
Another experiment relates to H9c2. Put plainly: cells. The settings on record: Rattus norvegicus, H9c2, Myocardium. The class given is functional, cell-based.
Experiment [27] is described as follows: reduction of Shn3 3'UTR-driven luciferase in osteoblasts – cell-based, Clone20 osteoblasts, firefly luciferase, cherry-picked, dose response (AID 624132).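 Also: firefly luciferase luminescence from reporter carrying the Shn3 3'UTR in osteoblasts.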 The class given is functional.
Experiment [28] can be described thus: loss of viability in HepG2 cells – cell-based, CellTiter-Glo, cherry-picked, cytotoxicity control for Shn3 inhibitor project, dose response (AID 624134). The class given is functional.
A short description of experiment [29]: non-specific 3'UTR reporter inhibition in Clone20-Shn3RL – cell-based, Renilla luciferase, cherry-picked, counter-screen for Shn3 inhibitor project, dose response (AID 624133). The format is functional. For orientation: A counterscreen serves to expose hits that act by an unwanted route or on another target.
For experiment [30], the target named is T2, High affinity choline transporter 1. Put plainly: human choline transporter potentiators, potency – cell-based, 10-point CRC, membrane potential dye, dose response (AID 602376). The class given is functional.

Chain of Dual specificity protein kinase CLK1 (P49759 whole entry): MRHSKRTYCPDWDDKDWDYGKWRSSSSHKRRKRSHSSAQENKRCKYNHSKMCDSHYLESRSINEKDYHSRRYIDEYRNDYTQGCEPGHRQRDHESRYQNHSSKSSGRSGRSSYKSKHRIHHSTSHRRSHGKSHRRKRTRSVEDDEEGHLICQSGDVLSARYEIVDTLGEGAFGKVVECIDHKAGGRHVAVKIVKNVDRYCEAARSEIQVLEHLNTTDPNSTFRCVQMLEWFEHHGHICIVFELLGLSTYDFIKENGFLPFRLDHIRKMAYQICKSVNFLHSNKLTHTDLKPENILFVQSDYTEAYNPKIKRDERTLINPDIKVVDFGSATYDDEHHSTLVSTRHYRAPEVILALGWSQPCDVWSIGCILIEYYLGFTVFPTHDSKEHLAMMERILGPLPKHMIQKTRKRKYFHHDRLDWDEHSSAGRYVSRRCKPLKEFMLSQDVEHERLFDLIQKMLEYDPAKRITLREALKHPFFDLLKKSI
Chain of Aryl hydrocarbon receptor (P35869 whole entry): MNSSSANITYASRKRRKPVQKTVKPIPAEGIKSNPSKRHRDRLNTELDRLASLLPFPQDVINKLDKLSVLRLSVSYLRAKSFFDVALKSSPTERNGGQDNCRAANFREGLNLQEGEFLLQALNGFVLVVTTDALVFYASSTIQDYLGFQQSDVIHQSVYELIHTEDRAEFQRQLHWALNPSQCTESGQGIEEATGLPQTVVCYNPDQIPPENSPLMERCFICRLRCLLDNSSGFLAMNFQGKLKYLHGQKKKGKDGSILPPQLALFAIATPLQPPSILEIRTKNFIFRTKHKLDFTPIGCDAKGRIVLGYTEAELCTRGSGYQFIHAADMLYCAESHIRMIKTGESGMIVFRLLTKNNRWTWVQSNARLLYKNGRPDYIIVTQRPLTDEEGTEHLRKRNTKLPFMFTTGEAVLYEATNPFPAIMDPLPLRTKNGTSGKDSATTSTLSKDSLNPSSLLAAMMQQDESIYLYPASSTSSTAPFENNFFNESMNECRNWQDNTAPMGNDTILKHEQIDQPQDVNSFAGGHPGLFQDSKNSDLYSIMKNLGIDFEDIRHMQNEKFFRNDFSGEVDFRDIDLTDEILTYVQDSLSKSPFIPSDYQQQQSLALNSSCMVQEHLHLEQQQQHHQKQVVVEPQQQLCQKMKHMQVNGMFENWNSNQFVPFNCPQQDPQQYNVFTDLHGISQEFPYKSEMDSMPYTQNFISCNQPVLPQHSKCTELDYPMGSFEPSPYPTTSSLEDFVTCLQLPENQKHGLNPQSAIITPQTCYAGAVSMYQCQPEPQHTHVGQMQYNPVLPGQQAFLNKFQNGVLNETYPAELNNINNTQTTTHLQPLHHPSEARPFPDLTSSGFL
Chain of Glycogen synthase kinase-3 beta (P49841 whole entry): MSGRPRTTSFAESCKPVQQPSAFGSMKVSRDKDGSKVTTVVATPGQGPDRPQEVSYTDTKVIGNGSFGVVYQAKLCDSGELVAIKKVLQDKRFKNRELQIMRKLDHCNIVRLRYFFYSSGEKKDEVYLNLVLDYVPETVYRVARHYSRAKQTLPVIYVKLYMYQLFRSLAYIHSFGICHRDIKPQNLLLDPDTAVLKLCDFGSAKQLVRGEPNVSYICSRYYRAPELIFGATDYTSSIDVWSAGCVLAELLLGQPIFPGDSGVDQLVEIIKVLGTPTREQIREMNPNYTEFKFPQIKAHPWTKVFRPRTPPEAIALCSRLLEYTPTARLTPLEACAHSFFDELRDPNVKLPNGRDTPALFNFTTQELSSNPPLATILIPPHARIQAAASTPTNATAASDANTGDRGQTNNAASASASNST
Chain of Tyrosine-protein kinase JAK3 (P52333 whole entry): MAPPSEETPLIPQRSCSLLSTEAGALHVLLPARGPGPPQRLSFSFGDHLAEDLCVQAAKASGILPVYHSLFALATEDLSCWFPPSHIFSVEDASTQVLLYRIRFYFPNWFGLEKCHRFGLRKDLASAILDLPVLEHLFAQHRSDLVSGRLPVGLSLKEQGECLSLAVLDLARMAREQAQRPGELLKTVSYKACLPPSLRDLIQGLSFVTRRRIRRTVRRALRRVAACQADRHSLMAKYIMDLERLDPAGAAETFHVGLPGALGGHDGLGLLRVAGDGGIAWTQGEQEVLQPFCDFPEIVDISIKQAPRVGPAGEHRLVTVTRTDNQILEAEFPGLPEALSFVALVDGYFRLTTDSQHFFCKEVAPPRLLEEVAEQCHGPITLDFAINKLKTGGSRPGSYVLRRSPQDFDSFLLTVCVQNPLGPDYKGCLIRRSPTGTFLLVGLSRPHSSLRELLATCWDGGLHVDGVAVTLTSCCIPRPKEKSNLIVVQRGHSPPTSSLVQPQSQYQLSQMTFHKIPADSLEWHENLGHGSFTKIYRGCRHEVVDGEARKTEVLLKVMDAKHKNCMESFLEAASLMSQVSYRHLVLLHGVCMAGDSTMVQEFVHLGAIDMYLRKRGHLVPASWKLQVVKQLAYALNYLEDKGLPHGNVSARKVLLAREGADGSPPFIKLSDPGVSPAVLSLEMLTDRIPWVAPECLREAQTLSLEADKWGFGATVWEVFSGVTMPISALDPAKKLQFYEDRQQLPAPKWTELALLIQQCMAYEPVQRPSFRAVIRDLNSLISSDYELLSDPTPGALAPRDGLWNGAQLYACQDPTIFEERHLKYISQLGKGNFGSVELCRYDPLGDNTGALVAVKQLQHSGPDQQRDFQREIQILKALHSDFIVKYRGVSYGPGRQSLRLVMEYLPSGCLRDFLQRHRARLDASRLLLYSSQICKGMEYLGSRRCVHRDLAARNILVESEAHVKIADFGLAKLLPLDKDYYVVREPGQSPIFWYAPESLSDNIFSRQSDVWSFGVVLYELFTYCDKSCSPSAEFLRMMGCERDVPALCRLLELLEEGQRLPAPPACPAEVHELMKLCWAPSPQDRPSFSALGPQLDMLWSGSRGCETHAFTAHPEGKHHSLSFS
Chain of Glycogen synthase kinase-3 alpha (P49840 whole entry): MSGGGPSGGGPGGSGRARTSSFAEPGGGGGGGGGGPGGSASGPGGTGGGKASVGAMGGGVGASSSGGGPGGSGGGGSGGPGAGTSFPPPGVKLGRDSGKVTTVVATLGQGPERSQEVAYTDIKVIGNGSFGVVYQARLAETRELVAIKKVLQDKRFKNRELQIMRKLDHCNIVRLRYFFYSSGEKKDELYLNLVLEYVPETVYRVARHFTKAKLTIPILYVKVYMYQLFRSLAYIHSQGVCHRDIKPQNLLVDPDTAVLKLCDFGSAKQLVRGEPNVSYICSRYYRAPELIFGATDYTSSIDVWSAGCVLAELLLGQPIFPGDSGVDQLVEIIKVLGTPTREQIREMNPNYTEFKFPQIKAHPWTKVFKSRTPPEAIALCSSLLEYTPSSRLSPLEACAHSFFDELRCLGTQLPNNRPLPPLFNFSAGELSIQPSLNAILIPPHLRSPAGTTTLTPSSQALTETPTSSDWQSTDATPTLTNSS

On to `Clc1cccc(Nc2nc(N3CCOCC3)nc(-n3cccn3)n2)c1`, for which the Ki was 3.16 µM (active) in experiment [1], 3.16 µM (active) in experiment [2] and 2.51 µM (active) in [3].
Turning to `C=CCC[C@H](Cc1ccc(F)cc1)C(=O)OC[C@@H](C)NC(=O)[C@H](CC=C)CC(=O)NCCO`, in the experiment on Escherichia coli, the AC50 is > 150 µM (inactive).
For `c1nc(NCC2CCCO2)c2cc(-c3ccc4c(c3)OCO4)ccc2n1` (centres undefined), in [4], the AC50 is 0.0113 µM (active).
On the same count and under the same terms, the result for `Cc1ccsc1CNc1ncnc2ccc(-c3ccc4c(c3)OCO4)cc12` reads 0.00994 µM (active).
In the case of `O=C(NCc1ccco1)/C(=C\C=C\c1ccccc1)NC(=O)c1ccco1`, the IC50 (in the experiment with HEK293 [5]; in [6]) was > 67.5 µM (inactive) throughout.
For `O=C1CN=C(c2cccc(Cl)c2)c2c(sc3c2CCCC3)N1`, the Ki in [7] is 3.98 µM (active); in experiment [8], 6.31 µM (active); in [9], 3.16 µM (active); in experiment [10], 2.51 µM (active).
Regarding `O=c1cc(-c2ccc(O)cc2)oc2cc(O)cc(O)c12` [APIGENIN], the AC50 in [11] is 35.5 µM (inconclusive) and 28.2 µM (inconclusive).
On to `O=c1c2ccccc2[nH]c(=S)n1CCN1CCCCC1`, for which the IC50 is 8.77 µM (active) in experiment [12] and 7.94 µM (active) in experiment [13].
Turning to `COc1ccc(CN(C)S(=O)(=O)c2nnc(NC(=O)c3cccc(F)c3)s2)cc1`, the EC50 was 1.8 µM (active) in the experiment on HEK293 [14] and 12.7 µM (active) in experiment [17]. Also, the IC50 in the experiment on HEK293 [15] is 17.1 µM (active); with HEK293 [16], > 20 µM (inactive); with HEK293 [18] it was 12.3 µM (inactive); in the experiment with HEK293 [19], > 20 µM (inactive); on Tumor necrosis factor, 8.03 µM (active); in [20], 6.74 µM (active). Also, the IC50 in the experiment with HEK293 [21] was > 20 µM (inactive).
Regarding `CC1=C(C(=O)OCC2CCCO2)C(c2coc3ccc(Cl)cc3c2=O)C2=C(O)CCCC2=N1` (centres undefined), the IC50 (in the experiment with HEK293 [5]; in [6]) was > 67.5 µM (inactive) throughout.
For the compound `CC[C@]12c3[nH]c4ccc(OC)cc4c3CCN1C(=O)C(CC(=O)NCC13C[C@H]4C[C@@H](C1)C[C@@H](C3)C4)C[C@@H]2C(=O)N1CCN(C(=O)c2ccco2)CC1` (some centres undefined), the IC50 in experiment [22] was 4.2 µM (active). Moreover, the EC50 in the experiment with HEK293 [23] and with HEK293 [24] was > 59.6 µM (inactive) throughout.
For `Cc1c(/N=C/c2cc(Br)cc(Br)c2O)cccc1C(=O)O`, the EC50 in experiment [25] was > 50 µM (active). Also, the AC50 in [26] was 3.56 µM (active). Further, the values for the IC50 (in experiment [12]; with H9c2; in experiment [13]) were 3.44 µM (active), 20 µM (active) and 2.67 µM (active), respectively.
Consider `Cc1ccc(C(=O)N2CCCC(CCC(=O)NCc3ccc(F)c(F)c3)C2)cn1` (centres undefined), for which the AC50 in the experiment on Escherichia coli was 33.1 µM (active).
`CCN(CC)CCn1c(=N)n(CC(O)COc2cccc(C)c2)c2ccccc21` (centres undefined): the AC50 was 4.39 µM (active) in experiment [27], 21.2 µM (active) in [28] and 7.45 µM (active) in [29]. Further, the EC50 in experiment [30] was 12.4 µM (active).

Usually Ki stands for the dissociation constant of the complex between target and ligand, obtained from inhibition or displacement. As usually defined, the AC50 is the concentration giving half of the maximal activity seen. What is called IC50 is the concentration needed to halve the response being measured. By EC50 is commonly meant the concentration that produces a half-maximal response.
